How the values were obtained:
[1] = target: T1, Synaptic vesicular amine transporter (Rattus norvegicus, UniProt Q01827); test: Inhibition constant against [3H]dihydrotetrabenazine binding to vesicular monoamine transporter-2 of rat synaptic vesicle membranes
[2] = target: Neuronal acetylcholine receptor alpha4beta2 (Rattus norvegicus); test: Inhibition constant against [3H]nicotine binding to alpha4beta2 nicotinic acetylcholine receptor of rat brain membranes
[3] = target: Neuronal acetylcholine receptor alpha7 (Rattus norvegicus); test: Inhibition constant against [3H]methyllycaconitine binding to alpha7 nicotinic acetylcholine receptor of rat brain membranes
[4] = target: T1, Synaptic vesicular amine transporter; test: Inhibition constant against [3H]nicotine binding to vesicular monoamine transporter-2 of rat brain membranes
[5] = target: T1, Synaptic vesicular amine transporter; test: Inhibition constant against [3H]methyllycaconitine binding to vesicular monoamine transporter-2 of rat brain membranes

T1 sequence (Q01827 whole entry): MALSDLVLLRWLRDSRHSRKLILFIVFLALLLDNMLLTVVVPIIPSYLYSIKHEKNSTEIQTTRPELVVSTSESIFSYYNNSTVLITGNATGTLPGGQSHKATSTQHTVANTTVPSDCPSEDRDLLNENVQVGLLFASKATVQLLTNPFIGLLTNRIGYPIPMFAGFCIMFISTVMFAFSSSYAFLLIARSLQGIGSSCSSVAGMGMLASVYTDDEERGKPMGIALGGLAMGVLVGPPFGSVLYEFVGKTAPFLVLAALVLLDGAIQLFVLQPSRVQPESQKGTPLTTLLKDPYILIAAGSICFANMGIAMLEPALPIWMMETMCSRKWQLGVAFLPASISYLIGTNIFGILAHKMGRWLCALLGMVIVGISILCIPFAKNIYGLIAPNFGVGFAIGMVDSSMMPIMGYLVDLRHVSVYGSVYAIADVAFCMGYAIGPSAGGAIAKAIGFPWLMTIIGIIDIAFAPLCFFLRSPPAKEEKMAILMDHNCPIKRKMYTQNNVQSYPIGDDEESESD

Row | SMILES | Ki [1] | Ki [2] | Ki [3] | Ki [4] | Ki [5]
1 | COc1ccc(C[C@@H]2C[C@H](Cc3ccc(OC)cc3)C3CCC2N3C)cc1 | 3.88 µM | > 100 µM | > 100 µM |  | 
2 | CN1C2CCC1[C@@H](Cc1ccc(F)cc1)C[C@H]2Cc1ccc(F)cc1 | > 100 µM | > 100 µM | > 100 µM |  | 
3 | CN1C2CCC1[C@@H](Cc1ccccc1)C(=O)[C@H]2Cc1ccccc1 | > 100 µM | > 100 µM | > 100 µM |  | 
4 | CN1C2CC=C(Cc3ccccc3)C1CC2 (stereo not drawn) | > 100 µM | 1.84 µM | 15.2 µM |  | 
5 | CN1C2CCC1[C@H](Cc1ccccc1)CC2 (stereo partly drawn) | > 100 µM | > 6.57 µM | 14 µM |  | 
6 | CN1C2CCC1[C@@H](Cc1ccc(F)cc1)C=C2Cc1ccc(F)cc1 (stereo partly drawn) | 1.38 µM | > 100 µM | > 100 µM |  | 
7 | CN1C2CCC1[C@@H](CCCc1ccccc1)C[C@H]2CCCc1ccccc1 | 3.95 µM | > 100 µM | > 100 µM |  | 
8 | COc1ccc(CC2=C[C@H](Cc3ccc(OC)cc3)C3CCC2N3C)cc1 (stereo partly drawn) | 4.8 µM | > 100 µM | > 100 µM |  | 
9 | CN1C2CCC1[C@@H](Cc1ccccc1)C[C@H]2Cc1ccccc1 | > 100 µM | > 100 µM | > 100 µM |  | 
10 | CN1C2CCC1[C@@H](Cc1ccccc1)C(O)[C@H]2Cc1ccccc1 (stereo in doubt; 7a) | > 100 µM | > 100 µM | > 100 µM |  | 
11 | CN1C2CCC1[C@@H](Cc1ccccc1)C(O)[C@H]2Cc1ccccc1 (stereo in doubt; 7b) | > 100 µM |  |  | > 100 µM | > 100 µM

Source: ChEMBL document CHEMBL1142843, “Synthesis and evaluation of a series of tropane analogues as novel vesicular monoamine transporter-2 ligands” (Bioorg Med Chem Lett, 2005)
